According to patent publication US8648086B2, “5,6-bicyclic heteroaryl-containing urea compounds as kinase inhibitors” (Ascepion Pharmaceuticals, Inc., priority 2009, dated 2014):
Where a name gives a salt, the structure may show the parent alone.

How the values were obtained:
c-Met = target: T1, c-Met (Homo sapiens, UniProt P08581); test: c-Met cell-based assay (phospho-c-Met ELISA, A549 cells); conditions: compound at 100 nM
T1 construct: endogenous in cells; host or cells: A549 cells
Procedure: A procedure for standard cell-based assay for c-Met kinase activity can be used to test compounds of this invention for their inhibitory effect on this kinase and to identify c-Met antagonists.
Specifically, a compound to be tested was first dissolved in DMSO to a concentration of 10 mM and stored at −20° C. The activity of c-Met in cells depends on the phosphorylation level at its intracellular domain induced by its ligand, Hepatocyte growth factor (HGF). In order to induce the cells to produce phosphate c-Met, paracrine HGF-dependent NSCLC (None Small Cell Lung Cancer) A549 cells were grown in DMEM with 10% FBS.
To screen compounds of this invention for their inhibitory effect on c-Met kinase, the ELISA kit (R&D Systems) was used. One day before screening procedure, A549 cells were grown in DMEM without the presence of serum. On the day of screening procedure, various concentrations of compounds (from 0.5 nM to 500 nM) were added into the culture medium. Two hours later, 20% of FBS (Fetal Bovine Serum) was added into the medium to stimulate the expression of phosphor-c-Met. After 20 minutes, cell lysate from approximately 5×10^5 A549 cells were reacted with anti-phosphor-c-Met or anti total c-Met antibody in 96 well plates. In the presence of detection antibody, the phosphor-c-Met or total c-Met can be detected with Streptavidin-HRP (R&D Systems) followed by chemiluminescence detection.

PDGFRβ = target: T2, PDGFRβ (Homo sapiens, UniProt P09619); test: PDGFRβ cell-based assay (phospho-PDGFRβ ELISA, transfected CHO cells); conditions: compound at 100 nM, read-out: % PDGFRβ kinase activity remains
T2 construct: expressed in transfected cells; host or cells: CHO cells, pcDNA3.1 plasmid
T2 sequence (P09619 33-1106, species assumed): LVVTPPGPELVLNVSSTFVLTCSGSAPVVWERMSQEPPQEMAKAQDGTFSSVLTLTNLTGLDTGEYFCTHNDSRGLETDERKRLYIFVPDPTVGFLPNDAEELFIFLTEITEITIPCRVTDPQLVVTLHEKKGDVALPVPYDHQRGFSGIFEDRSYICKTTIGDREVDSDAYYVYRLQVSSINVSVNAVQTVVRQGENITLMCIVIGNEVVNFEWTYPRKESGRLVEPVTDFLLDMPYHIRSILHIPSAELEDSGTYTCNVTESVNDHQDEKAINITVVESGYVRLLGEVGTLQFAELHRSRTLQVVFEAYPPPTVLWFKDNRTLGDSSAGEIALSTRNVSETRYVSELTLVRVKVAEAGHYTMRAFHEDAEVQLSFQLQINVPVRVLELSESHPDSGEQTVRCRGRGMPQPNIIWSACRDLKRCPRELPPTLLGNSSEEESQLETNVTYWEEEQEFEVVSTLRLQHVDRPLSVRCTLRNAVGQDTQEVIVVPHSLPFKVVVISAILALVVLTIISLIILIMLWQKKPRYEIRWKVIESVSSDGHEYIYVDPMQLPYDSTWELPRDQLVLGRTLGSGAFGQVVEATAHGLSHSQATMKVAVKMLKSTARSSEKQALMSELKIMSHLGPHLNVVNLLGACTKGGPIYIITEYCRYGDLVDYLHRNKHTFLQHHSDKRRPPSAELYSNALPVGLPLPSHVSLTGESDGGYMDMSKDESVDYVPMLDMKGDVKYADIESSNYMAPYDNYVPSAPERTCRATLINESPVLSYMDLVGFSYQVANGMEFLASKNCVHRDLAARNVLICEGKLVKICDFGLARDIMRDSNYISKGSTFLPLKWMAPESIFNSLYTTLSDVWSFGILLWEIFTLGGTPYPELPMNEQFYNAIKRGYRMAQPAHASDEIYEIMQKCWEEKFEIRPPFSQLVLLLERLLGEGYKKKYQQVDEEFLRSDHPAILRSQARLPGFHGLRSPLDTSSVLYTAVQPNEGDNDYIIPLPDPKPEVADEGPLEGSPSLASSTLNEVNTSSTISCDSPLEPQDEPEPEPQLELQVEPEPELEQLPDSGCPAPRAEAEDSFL
Procedure: A standard cell-based assay for PDGFRβ kinase activity can be used to test a compound of this invention and to identify PDGFRβ antagonists.
Specifically, a compound to be tested was first dissolved in DMSO to a concentration of 10 mM and stored at −20° C. The activity of PDGFRβ in cells depends on the phosphorylation level of its intracellular domain induced by the ligand. In order to express PDGFRβ in the cell, full length PDGFRβ sequence was cloned into PC-DNA3.1 vector. The plasmid was then transfected into CHO cells. After 48 hours following the transfection, the expression of PDGFRβ in transfected CHO cells was confirmed by regular western blotting.
To screen the compound of this invention, the ELISA kit (R&D Systems, Minneapolis, Minn., USA) was used. One day before the screening, CHO cells transfected with full length PDGFRβ plasmid were grown in DMEM medium without the presence of serum. On the day of screening, various concentrations of compounds (from 0.5 nM to 500 nM) were added into DMEM medium. Two hours later, 20% of FBS (Fetal Bovine Serum) was added into the medium to stimulate the expression of phosphor-PDGFRβ. Cell lysate from approximately 5×10^5 transfected CHO cells were reacted with anti-phosphor-PDGFRβ or anti-total PDGFRβ antibody in 96 well plates, in the presence of detection antibody, the phosphor-PDGFRβ or total PDGFRβ were detected with Streptavidin-HRP (R&D Systems), followed by chemiluminescent detection.

VEGFR2 = target: T3, VEGFR2 (Homo sapiens, UniProt P35968); test: VEGFR2 cell-based assay (phospho-VEGFR2 ELISA, transfected CHO cells); conditions: compound at 100 nM, read-out: % VEGFR2 kinase activity remains
T3 construct: expressed in transfected cells; host or cells: CHO cells, pcDNA3.1 plasmid
T3 sequence (P35968 20-1356, species assumed): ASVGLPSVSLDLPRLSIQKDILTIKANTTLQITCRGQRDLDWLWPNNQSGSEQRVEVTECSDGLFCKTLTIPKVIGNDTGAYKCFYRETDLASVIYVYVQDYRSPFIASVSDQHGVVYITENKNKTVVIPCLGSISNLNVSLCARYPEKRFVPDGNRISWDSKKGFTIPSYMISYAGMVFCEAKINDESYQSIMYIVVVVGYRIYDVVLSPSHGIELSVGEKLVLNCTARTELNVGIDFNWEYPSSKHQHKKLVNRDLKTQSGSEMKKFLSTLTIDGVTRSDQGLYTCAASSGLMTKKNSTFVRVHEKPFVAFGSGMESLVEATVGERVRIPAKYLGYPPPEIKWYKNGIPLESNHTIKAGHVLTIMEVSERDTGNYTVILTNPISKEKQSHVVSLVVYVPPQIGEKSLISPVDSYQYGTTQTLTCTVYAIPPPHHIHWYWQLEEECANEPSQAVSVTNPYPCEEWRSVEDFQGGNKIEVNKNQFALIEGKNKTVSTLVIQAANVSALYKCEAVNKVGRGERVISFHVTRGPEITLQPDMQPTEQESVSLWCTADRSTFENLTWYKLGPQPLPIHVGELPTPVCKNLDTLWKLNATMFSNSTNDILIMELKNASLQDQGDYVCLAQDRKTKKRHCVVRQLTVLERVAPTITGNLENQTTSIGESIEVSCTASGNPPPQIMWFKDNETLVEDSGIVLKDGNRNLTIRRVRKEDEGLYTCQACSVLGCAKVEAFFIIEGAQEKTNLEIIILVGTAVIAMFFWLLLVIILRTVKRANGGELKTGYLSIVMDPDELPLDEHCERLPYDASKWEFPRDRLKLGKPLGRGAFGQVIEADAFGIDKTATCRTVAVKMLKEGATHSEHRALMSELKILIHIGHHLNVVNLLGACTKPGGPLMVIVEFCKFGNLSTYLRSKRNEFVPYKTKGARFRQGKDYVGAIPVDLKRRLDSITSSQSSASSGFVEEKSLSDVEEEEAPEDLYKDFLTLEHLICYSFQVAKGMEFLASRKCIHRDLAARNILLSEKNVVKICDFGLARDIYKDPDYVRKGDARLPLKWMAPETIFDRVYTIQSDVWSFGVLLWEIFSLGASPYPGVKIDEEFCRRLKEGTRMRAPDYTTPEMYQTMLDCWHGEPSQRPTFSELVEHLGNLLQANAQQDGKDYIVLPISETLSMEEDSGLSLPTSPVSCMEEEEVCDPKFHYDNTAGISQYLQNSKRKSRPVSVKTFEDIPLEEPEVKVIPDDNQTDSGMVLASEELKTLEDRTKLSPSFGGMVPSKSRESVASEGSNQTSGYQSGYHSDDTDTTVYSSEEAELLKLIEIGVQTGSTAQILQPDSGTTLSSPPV
Procedure: A standard cell-based assay for VEGFR2 kinase activity can be used to test compounds of this invention and to identify VEGFR2 antagonists.
Specifically, a compound to be tested was first dissolved in DMSO to a concentration of 10 mM and stored at −20° C. The activity of VEGFR2 in cells depends on the phosphorylation level at its intracellular domain induced by the ligand. In order to express VEGFR2 in the cells, full length VEGFR2 sequence was cloned into PC-DNA3.1 vector, the plasmid was then transfected into CHO cells. After 48 hours, the expression of VEGFR2 in transfected CHO cells was confirmed by regular western blotting.
To screen the compounds of this invention, the ELISA kit (R&D Systems) was used. One day before the screening, CHO cells transfected with full length VEGFR2 plasmid were grown in DMEM medium without the presence of serum. On the day of screening, various concentrations of compounds (From 0.5 nM to 500 nM) were added into DMEM medium. Two hours later, 20% of FBS (Fetal Bovine Serum) was added into the medium to stimulate the production of phosphor-VEGFR2. Cell lysate from approximately 5×10^5 transfected CHO cells were reacted with anti-phosphor-VEGFR2 or anti-total VEGFR2 antibody in 96 well plates. In the presence of detection antibody, the phosphor-VEGFR2 or total VEGFR2 were detected with Streptavidin-HRP (R&D Systems) followed by chemiluminescence detection.

T1 sequence (P08581 25-1390): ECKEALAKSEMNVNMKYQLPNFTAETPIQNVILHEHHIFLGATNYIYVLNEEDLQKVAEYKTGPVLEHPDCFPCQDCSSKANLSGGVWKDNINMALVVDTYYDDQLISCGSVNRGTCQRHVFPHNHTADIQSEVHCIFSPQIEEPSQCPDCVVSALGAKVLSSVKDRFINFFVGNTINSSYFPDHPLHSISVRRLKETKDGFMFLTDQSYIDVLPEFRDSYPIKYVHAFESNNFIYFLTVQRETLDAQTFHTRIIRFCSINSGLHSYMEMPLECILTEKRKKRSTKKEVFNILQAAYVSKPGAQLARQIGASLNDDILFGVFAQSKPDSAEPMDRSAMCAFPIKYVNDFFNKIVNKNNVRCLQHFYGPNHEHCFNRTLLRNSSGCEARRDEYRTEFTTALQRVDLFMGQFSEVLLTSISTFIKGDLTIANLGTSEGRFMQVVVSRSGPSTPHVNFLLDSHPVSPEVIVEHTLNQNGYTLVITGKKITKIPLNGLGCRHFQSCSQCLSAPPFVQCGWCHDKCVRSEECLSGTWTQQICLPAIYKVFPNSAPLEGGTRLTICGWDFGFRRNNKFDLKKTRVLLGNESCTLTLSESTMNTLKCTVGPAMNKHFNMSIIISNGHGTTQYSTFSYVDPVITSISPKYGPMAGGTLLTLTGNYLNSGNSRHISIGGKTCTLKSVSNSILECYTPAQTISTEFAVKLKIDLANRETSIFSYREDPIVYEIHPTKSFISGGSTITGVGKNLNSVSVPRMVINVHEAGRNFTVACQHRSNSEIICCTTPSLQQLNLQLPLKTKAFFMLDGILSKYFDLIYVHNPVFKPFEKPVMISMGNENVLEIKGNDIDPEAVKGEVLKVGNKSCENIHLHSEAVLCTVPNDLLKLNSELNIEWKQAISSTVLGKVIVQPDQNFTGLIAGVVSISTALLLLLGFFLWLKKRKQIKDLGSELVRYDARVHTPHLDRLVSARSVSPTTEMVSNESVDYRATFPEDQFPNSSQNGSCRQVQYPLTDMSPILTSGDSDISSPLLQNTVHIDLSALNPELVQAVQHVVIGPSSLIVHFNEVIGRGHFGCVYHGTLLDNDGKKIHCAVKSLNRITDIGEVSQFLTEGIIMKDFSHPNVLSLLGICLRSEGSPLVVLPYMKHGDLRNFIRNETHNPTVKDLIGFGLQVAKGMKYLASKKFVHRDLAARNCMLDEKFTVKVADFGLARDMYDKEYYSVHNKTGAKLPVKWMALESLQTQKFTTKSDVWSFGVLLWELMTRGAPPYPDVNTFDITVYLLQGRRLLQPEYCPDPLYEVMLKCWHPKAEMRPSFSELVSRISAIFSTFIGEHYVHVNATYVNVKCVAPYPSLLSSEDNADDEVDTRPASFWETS

Compound	remaining activity at 0.1 µM (PDGFRβ)	remaining activity at 0.1 µM (VEGFR2)	% c-Met kinase activity remains (c-Met)
Cl.O=C(Nc1cccc(F)c1)Nc1cccc2c1ccn2Cc1ccnc2[nH]ccc12 [Example 35, 1-(3-Fluorophenyl)-3-[1-(1H-pyrrolo[2,3-b]pyridin-4-ylmethyl)-1H-indol-4-yl]urea hydrochloride]	≥ 70%	< 70%	A (the percentage of kinase activity remains is below 70%)
Cl.O=C(Nc1ccc(F)cc1)Nc1cccc2c1ccn2Cc1ccnc2[nH]ccc12 [Example 36, 1-(4-Fluorophenyl)-3-[1-(1H-pyrrolo[2,3-b]pyridin-4-ylmethyl)-1H-indol-4-yl]urea hydrochloride]	≥ 70%	< 70%	A (the percentage of kinase activity remains is below 70%)
COc1cccc(NC(=O)Nc2cccc3c2ccn3Cc2ccnc3[nH]ccc23)c1.Cl [Example 47, 1-(3-Methoxyphenyl)-3-[1-(1H-pyrrolo[2,3-b]pyridin-4-ylmethyl)-1H-indol-4-yl]urea hydrochloride]	≥ 70%	< 70%	A (the percentage of kinase activity remains is below 70%)
Cl.O=C(Nc1ccccc1)Nc1cccc2c1ccn2Cc1c[nH]c2ncccc12 [Example 4, 1-Phenyl-3-[1-(1H-pyrrolo[2,3-b]pyridin-3-ylmethyl)-1H-indol-4-yl]urea hydrochloride]	≥ 70%	≥ 70%	B (the percentage is greater or equal to 70%)
N#Cc1cccc(NC(=O)Nc2cccc3c2ccn3Cc2ccnc3[nH]ccc23)c1 [Example 53, 1-(3-Cyanophenyl)-3-[1-(1H-pyrrolo[2,3-b]pyridin-4-ylmethyl)-1H-indol-4-yl]urea hydrochloride]	≥ 70%		
COc1ccc(F)c(NC(=O)Nc2cccc3c2ccn3Cc2c[nH]c3ncccc23)c1 [Example 31, 1-(2-Fluoro-5-methoxyphenyl)-3-[1-(1H-pyrrolo[2,3-b]pyridin-3-ylmethyl)-1H-indol-4-yl]urea hydrochloride]	≥ 70%		
Cl.O=C(Nc1ccccc1F)Nc1cccc2c1ccn2Cc1ccnc2[nH]ccc12 [Example 34, 1-(2-Fluorophenyl)-3-[1-(1H-pyrrolo[2,3-b]pyridin-4-ylmethyl)-1H-indol-4-yl]urea hydrochloride]		< 70%	B (the percentage is greater or equal to 70%)
Cc1ccccc1NC(=O)Nc1cccc2c1ccn2Cc1c[nH]c2ncccc12.Cl [Example 14, 1-(2-Methylphenyl)-3-[1-(1H-pyrrolo[2,3-b]pyridin-3-ylmethyl)-1H-indol-4-yl]urea hydrochloride]		< 70%	A (the percentage of kinase activity remains is below 70%)
Cc1ccc(Br)c(NC(=O)Nc2cccc3c2ccn3Cc2ccnc3[nH]ccc23)c1.Cl [Example 58, 1-(2-Bromo-5-methylphenyl)-3-[1-(1H-pyrrolo[2,3-b]pyridin-4-ylmethyl)-1H-indol-4-yl]urea hydrochloride]		< 70%	A (the percentage of kinase activity remains is below 70%)
COc1ccc(NC(=O)Nc2cccc3c2ccn3Cc2c[nH]c3ncccc23)cc1.Cl [Example 19, 1-(4-Methoxyphenyl)-3-[1-(1H-pyrrolo[2,3-b]pyridin-3-ylmethyl)-1H-indol-4-yl]urea hydrochloride]		< 70%	A (the percentage of kinase activity remains is below 70%)

The next lines start with results.

remaining activity at 0.1 µM (PDGFRβ)	remaining activity at 0.1 µM (VEGFR2)	Compound	% c-Met kinase activity remains (c-Met)
≥ 70%	≥ 70%	Cl.O=C(Nc1cccc(OC(F)(F)F)c1)Nc1cccc2c1ccn2Cc1c[nH]c2ncccc12 [Example 21, 1-(3-Trifluoromethoxyphenyl)-3-[1-(1H-pyrrolo[2,3-b]pyridin-3-ylmethyl)-1H-indol-4-yl]urea hydrochloride]	B (the percentage is greater or equal to 70%)
≥ 70%	< 70%	Cl.O=C(Nc1ccc(C(F)(F)F)cc1)Nc1cccc2c1ccn2Cc1ccnc2[nH]ccc12 [Example 52, 1-(4-Trifluoromethylphenyl)-3-[1-(1H-pyrrolo[2,3-b]pyridin-4-ylmethyl)-1H-indol-4-yl]urea hydrochloride]	B (the percentage is greater or equal to 70%)
≥ 70%	≥ 70%	O=C(Nc1ccc(Cl)cc1)Nc1cccc2c1ccn2Cc1c[nH]c2ncccc12 [Example 10, 1-(4-Chlorophenyl)-3-[1-(1H-pyrrolo[2,3-b]pyridin-3-ylmethyl)-1H-indol-4-yl]urea hydrochloride]	B (the percentage is greater or equal to 70%)
≥ 70%	≥ 70%	Cl.O=C(Nc1ccc(Br)cc1)Nc1cccc2c1ccn2Cc1c[nH]c2ncccc12 [Example 13, 1-(4-Bromophenyl)-3-[1-(1H-pyrrolo[2,3-b]pyridin-3-ylmethyl)-1H-indol-4-yl]urea hydrochloride]	A (the percentage of kinase activity remains is below 70%)
≥ 70%		O=C(Nc1ccccc1C(F)(F)F)Nc1cccc2c1ccn2Cc1ccnc2[nH]ccc12 [Example 50, 1-(2-Trifluoromethylphenyl)-3-[1-(1H-pyrrolo[2,3-b]pyridin-4-ylmethyl)-1H-indol-4-yl]urea hydrochloride]	
	< 70%	Cl.O=C(Nc1cccc(C(F)(F)F)c1)Nc1cccc2c1ccn2Cc1c[nH]c2ncccc12 [Example 24, 1-(3-Trifluoromethylphenyl)-3-[1-(1H-pyrrolo[2,3-b]pyridin-3-ylmethyl)-1H-indol-4-yl]urea hydrochloride]	A (the percentage of kinase activity remains is below 70%)
	< 70%	Cc1c(F)cccc1NC(=O)Nc1cccc2c1ccn2Cc1ccnc2[nH]ccc12.Cl [Example 59, 1-(2-Methyl-3-fluorophenyl)-3-[1-(1H-pyrrolo[2,3-b]pyridin-4-ylmethyl)-1H-indol-4-yl]urea hydrochloride]	A (the percentage of kinase activity remains is below 70%)
	< 70%	Cl.O=C(Nc1cccc(F)c1)Nc1cccc2c1ccn2Cc1c[nH]c2ncccc12 [Example 6, 1-(3-Fluorophenyl)-3-[1-(1H-pyrrolo[2,3-b]pyridin-3-ylmethyl)-1H-indol-4-yl]urea hydrochloride]	B (the percentage is greater or equal to 70%)
	< 70%	Cl.O=C(Nc1cc(Br)ccc1F)Nc1cccc2c1ccn2Cc1ccnc2[nH]ccc12 [Example 57, 1-(2-Fluoro-5-bromophenyl)-3-[1-(1H-pyrrolo[2,3-b]pyridin-4-ylmethyl)-1H-indol-4-yl]urea hydrochloride]	A (the percentage of kinase activity remains is below 70%)
